The conditions of series [1]: cited from earlier work.
A short description of series [2]: Solubility (25° C. - w/v). The class given is physicochemical. Conditions: for Solubility in acetone, acetonitrile, tetrahydrofuran, dioxane: practically insoluble; for Solubility in methanol: slightly soluble; for Solubility in ethanol: very slightly soluble; for Solubility in water: very soluble.
Series [3] in a line: pH of a saturated aqueous solution at 20° C. The class given is physicochemical.
A short description of series [4]: Partition coefficient in phosphate buffer (pH 6.8)/n-octanol at 25° C. The class given is physicochemical.
A short description of series [5]: Stability at 25° C. and 60% R.H. (appearance, titre). Format: physicochemical.
Series [6] is described as follows: Stability at 40° C. and 85% R.H. (appearance, titre). Format: physicochemical.
[7] abbreviates: 0 months, (*): Crystalline powder of pale cream colour.
Setting [8] is: 18 months (after slight yellowing at 12 months).
Setting [9] is: 24 months (after slight yellowing at 12 months).

`N[C@H]1C(O)O[C@H](CO)[C@@H](O)[C@@H]1O.O=S(=O)(O)O` (some centres unmarked) [glucosamine sulphate, reference compound]: in series [1] (background statement), the Hygroscopicity result is on record as “highly hygroscopic”.
As to `Cl.N[C@H]1C(O)O[C@H](CO)[C@@H](O)[C@@H]1O.O=S(=O)([O-])[O-].[Mg+2]` (some centres unmarked) [Example 8], the “Solubility in benzene, chloroform, carbon tetrachloride, methylene chloride, ligroin, ethyl ether” value in series [2] is “Insoluble”. Also, the “Solubility in acetone, acetonitrile, tetrahydrofuran, dioxane” value in series [2] is recorded as < 0.01 % (w/v). For the same compound, the Solubility in methanol result in series [2] is given as “about 1 % (w/v)”. Also, the Solubility in ethanol result in series [2] is given as “about 0.03 % (w/v)”. Further, in series [2], the Solubility in water entry is “about 40 % (w/v)”. Moreover, in series [3], the “pH of a saturated aqueous solution” value is listed as 3 +/-0.2. Besides, in series [4], the Partition coefficient entry is “practically infinite”. Besides, the Titre in series [5] (0 months) is 100.5%; in series [5] (3 months, 131400 min) it was 100.1%; in series [5] (6 months, 262800 min), 99.8%; in series [5] (9 months, 394200 min), 100.3%; in series [5] (12 months, 525600 min) it was 100.6%; in series [6] (0 months), 100.5%. Besides, the Titre in series [6] (3 months, 129600 min) was determined as 100.6%; in series [6] (6 months, 259200 min), 100.1%; in series [6] (9 months, 388800 min), 100.2%; in series [6] (12 months, 518400 min) it was 97.4%; in series [6] (18 months, 777600 min), 97.7%; in series [6] (24 months, 1.0368e+06 min), 97.3%. The Appearance entry in series [5] (setting [7]) is on record as “conforms”; in series [5] (3 months), “unchanged”; in series [5] (6 months), “unchanged”; in series [5] (9 months), “unchanged”; in series [5] (12 months), “unchanged”; in series [6] (setting [7]) it was “conforms”. Besides, the Appearance result in series [6] (3 months), in series [6] (6 months), in series [6] (9 months), in series [6] (setting [8]) and in series [6] (setting [9]) was “unchanged” each time.
Consider `Cl.N[C@H]1C(O)O[C@H](CO)[C@@H](O)[C@@H]1O` (some centres unmarked) [glucosamine hydrochloride, reference compound], for which the Stability on storage result in series [1] (no particular precautions in time, temperature or humidity) is listed as “stable”.
With `Cl.N[C@H]1C(O)O[C@H](CO)[C@@H](O)[C@@H]1O.O=S(=O)([O-])[O-].[K+].[K+]` (some centres unmarked) [Example 6], the “Solubility in benzene, chloroform, carbon tetrachloride, methylene chloride, ligroin, ethyl ether” value in series [2] is given as “Insoluble”. Besides, in series [2], the “Solubility in acetone, acetonitrile, tetrahydrofuran, dioxane” value is on record as < 0.01 % (w/v). In series [2], the Solubility in methanol entry is “about 1 % (w/v)”. Moreover, the Solubility in ethanol entry in series [2] is recorded as “about 0.03 % (w/v)”. Moreover, in series [2], the Solubility in water entry is “about 40 % (w/v)”. For the same compound, in series [3], the “pH of a saturated aqueous solution” value is given as 3 +/-0.2. For the same compound, the Partition coefficient entry in series [4] was “practically infinite”. Also, the Titre in series [5] (0 months) turned out to be 100.1%; in series [5] (3 months, 131400 min) it was 100.3%; in series [5] (6 months, 262800 min), 99.8%; in series [5] (9 months, 394200 min), 99.6%; in series [5] (12 months, 525600 min), 100.3%; in series [6] (0 months) it was 100.1%. Also, the Titre in series [6] (3 months, 129600 min) is 100.3%; in series [6] (6 months, 259200 min), 99.8%; in series [6] (9 months, 388800 min) it was 100.0%; in series [6] (12 months, 518400 min) it was 95.7%; in series [6] (18 months, 777600 min), 96.2%; in series [6] (24 months, 1.0368e+06 min) it was 95.5%. Moreover, the Appearance entry in series [5] (setting [7]) is on record as “conforms”; in series [5] (3 months), “unchanged”; in series [5] (6 months), “unchanged”; in series [5] (9 months), “unchanged”; in series [5] (12 months) it was “unchanged”; in series [6] (setting [7]) it was “conforms”. The Appearance entry in series [6] (3 months), in series [6] (6 months), in series [6] (9 months), in series [6] (setting [8]) and in series [6] (setting [9]) was “unchanged” in each case.

The record behind these values is patent publication US5847107A, “Method of preparing mixed glucosamine salts” (Rotta Research B.V. Amsterdam (Swiss Branch), priority 1996, dated 1998).
